Series [1] in a line: Safety and tolerability in healthy subjects. The series is classed as in vivo, human. Conditions: single doses of dextromethorphan 30 mg with and without emvododstat 250 mg, 18 healthy subjects. From the text: The safety and tolerability of dextromethorphan alone and with emvododstat were monitored.
Series [2] can be described thus: Clinical drug-drug interaction study: plasma pharmacokinetics of dextromethorphan and dextrorphan with and without emvododstat. The series is classed as in vivo, human. The following applies: for CL/F: dextromethorphan; for Tmax: median (range). The method, then:
(§1) On day 1, 18 healthy subjects (ages ≥ 18 and ≤ 65 years) received a single oral dose of 30 mg (capsule) dextromethorphan followed by a 4-day washout period. On day 5, subjects received a single oral dose of 250 mg emvododstat with food. Two hours later, subjects were administered a single oral dose of 30 mg modified-release dextromethorphan.
Blood samples (3 mL) for dextromethorphan and dextrorphan assessments were collected in K2EDTA vacutainers on day 1 (dextromethorphan alone) and on day 5 (dextromethorphan in combination with emvododstat) at the following timepoints: 0- (predose), 0.5-, 1-, 2-, 3-, 4-, 5-, 6-, 8-, 12-, 24-, and 48-h post dextromethorphan dose. Within 120 min of collection of blood samples, plasma was harvested by centrifuging blood samples at 2000 ± 20 g for 10 min at 4 °C. Upon harvesting, plasma was transferred to 2-mL polypropylene tubes and immediately stored at – 20 ± 5 °C until analysis.
Concentrations of dextromethorphan and dextrorphan in human plasma samples were determined using high-performance liquid chromatography with tandem mass […] (LC-MS/MS) detection. The bioanalytical method was validated, and its performance during bioanalysis was within the limits specified in current regulatory guidance over a calibration range of 50 to 50,000 pg/mL. Validation included testing such as linearity, sensitivity, specificity, selectivity, accuracy and precision, dilution effects, recovery, ruggedness, and stability.
Briefly, dextromethorphan and dextrorphan were extracted from 0.2 mL of human K2EDTA plasma using an automated liquid–liquid extraction followed by detection using LC-MS/MS. Stable isotope labeled internal standard (dextromethorphan-d3 and dextrorphan-d3) was used to track the analytes potential variability. To 0.2 mL of plasma, the internal standard (IS) working solution diluted in an ammonium formate/ammonium hydroxide buffer solution was added. The analytes and ISs were extracted using methyl-tert-butyl-ether (MTBE). A portion of the upper layer was transferred to a 96 deep well collection plate using an automated liquid handling system. After evaporation to dryness, the dry residue was reconstituted with the mobile phase and injected on a Sciex API 4000. The chromatographic separation was performed in isocratic mode using BetaSil CN column (dimensions 50 × 4.6 mm, 5 μm) and methanol/Milli-Q type water with ammonium formate and formic acid as mobile phase. The mass spectrometer detection was performed in positive ion mode with multiple reaction monitoring (MRM) transitions of 272.2 → 215.3, 275.2 → 215.3, 258.2 → 201.2, and 261.2 → 157.2 for dextromethorphan, dextromethorphan-d3, dextrorphan, and dextrorphan-d3, respectively.
Dextromethorphan and dextrorphan concentrations in study plasma samples were determined using duplicate plasma calibration curves of dextromethorphan and dextrorphan in each analytical batch. Additionally, duplicate quality control plasma samples spiked with dextromethorphan and dextrorphan at four concentration levels (low, 150 pg/mL; intermediate, 2000 pg/mL; medium, 25,000 pg/mL; and high, […]) were included in each analytical batch to assess the assay performance of the bioanalytical method. The accuracy (%bias) of QC samples in all analytical batches was within ± 4.6%, and precision (%coefficient of variation) was less than 6.2% for dextromethorphan and dextrorphan.
Non-compartmental pharmacokinetics were performed using Phoenix® WinNonlin (Version 8.1, Certara, Princeton, NJ, USA). Primary parameters consisted of AUC0-last, AUC0-inf, and Cmax. Secondary parameters included T1/2, Tmax, and CL/F (drug clearance). Bioavailability assessments were calculated using SAS software (Version 9.4, SAS, Cary, NC, USA) in accordance with current regulatory guidelines. A mixed linear model was fitted on log-transformed AUC0-inf, AUC0-t, and Cmax for both parent and metabolite. […]

The conditions of series [3]: rats dosed for up to 28 days; cited from earlier work.
Another series concerns SARS-CoV-2. Also on record: method as in PMID 33249060. Conditions: SARS-CoV-2019, cell culture, cited from earlier work.
Series [4] relates to human bone marrow progenitor cells. The following applies: cultured human bone marrow progenitor cells; cited from earlier work.
The conditions of series [5]: dogs dosed for up to 28 days; cited from earlier work.
The conditions of series [6]: humans; cited from earlier work.
For series [7], the target named is T1, CYP2D6 (Homo sapiens, UniProt P10635). The arrangement: method as in PMID 34846990. The following applies: cited from earlier work.
T1 sequence (P10635 whole entry): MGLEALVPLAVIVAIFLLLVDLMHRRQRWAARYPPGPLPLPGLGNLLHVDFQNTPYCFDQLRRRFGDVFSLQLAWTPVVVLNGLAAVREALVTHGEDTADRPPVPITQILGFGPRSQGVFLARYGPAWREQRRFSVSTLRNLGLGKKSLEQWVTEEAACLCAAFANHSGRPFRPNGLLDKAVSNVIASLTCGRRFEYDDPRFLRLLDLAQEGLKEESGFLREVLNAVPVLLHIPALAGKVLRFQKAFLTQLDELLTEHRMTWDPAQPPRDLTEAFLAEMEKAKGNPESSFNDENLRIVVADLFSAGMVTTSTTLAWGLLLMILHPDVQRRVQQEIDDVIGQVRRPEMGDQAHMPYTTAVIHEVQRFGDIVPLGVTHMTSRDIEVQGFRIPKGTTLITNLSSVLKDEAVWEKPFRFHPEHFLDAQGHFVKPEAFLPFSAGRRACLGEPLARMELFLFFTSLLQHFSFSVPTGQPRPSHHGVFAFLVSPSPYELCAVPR
Series [8] deals with T1, CYP2D6. Description: Clinical drug-drug interaction study: in vivo CYP2D6 inhibition with dextromethorphan as probe substrate. Also on record: On day 1, 18 healthy subjects (ages ≥ 18 and ≤ 65 years) received a single oral dose of 30 mg (capsule) dextromethorphan; from tissue; host or cells: Healthy human subjects in vivo; The enzyme is their own. Conditions: single oral dose 250 mg emvododstat, dextromethorphan as sensitive probe substrate, healthy subjects. The method, then:
as §1
Non-compartmental pharmacokinetics were performed using Phoenix® WinNonlin (Version 8.1, Certara, Princeton, NJ, USA). Primary parameters consisted of AUC0-last, AUC0-inf, and Cmax. Secondary parameters included T1/2, Tmax, and CL/F (drug clearance). Bioavailability assessments were calculated using SAS software (Version 9.4, SAS, Cary, NC, USA) in accordance with current regulatory guidelines. A mixed linear model was fitted on log-transformed AUC0-inf, AUC0-t, and Cmax for both parent and metabolite. The model included terms for treatment (combined emvododstat + dextromethorphan as test treatment versus dextromethorphan as reference treatment) and subject as a random factor. LSM (geometric least squares mean) for the treatment ratio and 90% confidence intervals (90% CI) were estimated from the model.

Where [9] appears, read: dextromethorphan with emvododstat vs alone.
The mark [10] stands for this setting: dextrorphan in plasma after 30 mg dextromethorphan alone, geometric mean (%CV).
[11] abbreviates: dextrorphan in plasma after 30 mg dextromethorphan with 250 mg emvododstat, geometric mean (%CV).

Several values for one entry are separate records, joined by “and”; a condition that tells them apart may be missing. Identical values can stand only once. Like-named read-outs stand apart in the source and are kept apart here. Marks after values point to notes of the source that are not given here.

For the molecule `COc1ccc2c(c1)[C@]13CCCC[C@@H]1[C@H](C2)N(C)CC3` [Dextromethorphan, dextromethorphan, reference compound], in series [1], the Drug-related adverse effects result was “mild and reversible”. For the same molecule, the T1/2 in series [2] (dextromethorphan in plasma, 30 mg dextromethorphan with 250 mg emvododstat (day 5), geometric mean (%CV), n = 16) is 41.4^b (39.2) h; in series [2] (dextromethorphan in plasma, 30 mg oral dextromethorphan alone (day 1), geometric mean (%CV)) it was 9.15 (25.2) h. In [2] (setting [9]), the “Increase in T1/2” value came to 32 h. Further, the “Reduction in clearance (CL/F)” value in [2] (setting [9]) turned out to be 94%. For the same molecule, the CL/F in series [2] (30 mg dextromethorphan with 250 mg emvododstat (day 5), geometric mean (%CV), n = 16) was 81.5^b (117.0) L/h; in series [2] (30 mg oral dextromethorphan alone (day 1), geometric mean (%CV)), 1367 (176.7) L/h. Besides, the AUC(0-t) (usually exposure summed from dosing to a finite time, without extrapolation to infinity) in series [2] (human, oral, dextromethorphan in plasma, 30 mg dextromethorphan with 250 mg emvododstat (day 5), geometric mean (%CV)) is 157 ng·h/mL; in series [2] (human, dextromethorphan in plasma, 30 mg oral dextromethorphan alone (day 1), geometric mean (%CV)) it was 18.8 ng·h/mL. For the same molecule, the AUC(0-inf) in [2] (human, oral, dextromethorphan in plasma, 30 mg dextromethorphan with 250 mg emvododstat (day 5), geometric mean (%CV), n = 16, read-out: AUC0-inf) was 362 ng·h/mL; in [2] (human, dextromethorphan in plasma, 30 mg oral dextromethorphan alone (day 1), geometric mean (%CV), read-out: AUC0-inf) it was 21.6 ng·h/mL. Further, the Tmax stood at 4 h in series [2] (human, oral, dextromethorphan in plasma, 30 mg dextromethorphan with 250 mg emvododstat (day 5), read-out: Tmax) and 4 h in [2] (human, dextromethorphan in plasma, 30 mg oral dextromethorphan alone (day 1), read-out: Tmax). The half-life in [2] (human, plasma, oral, dextromethorphan in plasma, 30 mg dextromethorphan with 250 mg emvododstat (day 5), geometric mean (%CV), n = 16, read-out: T1/2 (converted)) is 41 h; in [2] (human, plasma, po, 30 mg, dextromethorphan in plasma, 30 mg oral dextromethorphan alone (day 1), geometric mean (%CV), read-out: T1/2 (converted)), 9 h. Besides, the Cmax (usually the highest concentration seen after dosing) in series [2] (human, dextromethorphan in plasma, 30 mg dextromethorphan 2 h after 250 mg oral emvododstat (day 5), geometric mean (%CV)) turned out to be 5.85 ng/mL; in series [2] (human, dextromethorphan in plasma, 30 mg oral dextromethorphan alone (day 1), healthy subjects, geometric mean (%CV)) it was 2.01 ng/mL.

For `CN1CC[C@@]23CCCC[C@@H]2[C@@H]1Cc1ccc(O)cc13` [Dextrorphan, dextrorphan], the “Geometric mean metabolite/parent ratio for AUC (dextrorphan/dextromethorphan)” value in [2] (dextromethorphan in the presence of emvododstat) is 0.182 and 0.18; in [2] (prior to administration of emvododstat), 1.69. For the same molecule, the results for the AUC0-last in [2] (setting [10]) and in [2] (setting [11]) were 31,852 (45.7) h·pg/mL and 29,382 (40.7) h·pg/mL, respectively. Further, the AUC(0-inf) in [2] (setting [10]) is 33,194 (43.8) h·pg/mL; in series [2] (setting [11]), 30,875 (38.8) h·pg/mL; in [2] (human, plasma, oral, dextrorphan, 30 mg dextromethorphan capsules alone, read-out: AUC0-inf), 33.2 ng·h/mL; in series [2] (human, plasma, oral, dextrorphan, dextromethorphan given concurrently with emvododstat, read-out: AUC0-inf) it was 30.9 ng·h/mL. Further, in series [2] (dextrorphan in plasma after 30 mg dextromethorphan with 250 mg emvododstat), the Tmax is given as 4 (1–4) h. Also, the “Effect of CYP2D6 inhibition on peak exposure (Cmax)” value in series [2] (dextrorphan, Cmax LSM ratio just inside, 90% CIs outside of the no effect range 0.80 to 1.25) is “slightly affected”. For the same molecule, the Cmax in series [2] (human, oral, dextrorphan in plasma after 30 mg dextromethorphan alone, geometric mean (%CV)) amounted to 5 ng/mL; in [2] (human, oral, dextrorphan in plasma after 30 mg dextromethorphan with 250 mg emvododstat, geometric mean (%CV)), 4.05 ng/mL. The half-life is 5.86 h in [2] (human, plasma, oral, 30 mg, dextrorphan in plasma after 30 mg dextromethorphan alone, geometric mean (%CV), read-out: T1/2 (converted)); 8.41 h in [2] (human, plasma, oral, dextrorphan in plasma after 30 mg dextromethorphan with 250 mg emvododstat, geometric mean (%CV), read-out: T1/2 (converted)); 6 to 8 h in [2] (human, plasma, oral, dextrorphan, alone and in combination with emvododstat, read-out: Effective T1/2). Moreover, the AUC(0-t) in [2] (human, plasma, oral, dextrorphan, 30 mg dextromethorphan capsules alone) was determined as 31.9 ng·h/mL; in series [2] (human, plasma, oral, dextrorphan, dextromethorphan given concurrently with emvododstat), 29.4 ng·h/mL.

In the case of `COc1ccc(C2c3[nH]c4ccc(Cl)cc4c3CCN2C(=O)Oc2ccc(Cl)cc2)cc1` (stereo not shown) [Emvododstat, 4-chlorophenyl 6-chloro-1-[4-methoxyphenyl]-1,3,4,9-tetrahydro-2H-pyrido[3,4-b]indole-2-carboxylate], the Myelotoxicity entry in series [3], in [5] and in series [6] was “no evidence of myelotoxicity” throughout. The EC50 (commonly the concentration that produces a half-maximal response) with SARS-CoV-2 (read-out: EC50, decreased capsid protein) was 1.96 nM; with SARS-CoV-2 (read-out: EC50, decreased viral titer) it was 2.6 nM. Also, the concentration for an effect of 90% (EC90) (as a rule, the concentration needed for an effect of 90%) in the series on SARS-CoV-2 (read-out: EC90, decreased viral titer) is 53 nM. The Drug-related adverse effects result in [1] was “mild and reversible”. Also, in series [4], the “Effect on viability or proliferation” value was “does not impair”. In addition, the Ki – broadly, a measure of affinity in units of concentration, obtained from inhibition or displacement – on CYP2D6 [7] (human liver microsomes, non-competitive inhibitor, read-out: Inhibition constant (Ki) for CYP2D6) is 38 nM and 37.7 nM. Further, at CYP2D6 [7] (in vitro), the half-maximal inhibitory concentration (IC50) (commonly the concentration needed to halve the response being measured) was 17 nM. Also, on CYP2D6 [8], the “In vivo CYP2D6 inhibitor classification” value was “strong inhibitor of CYP2D6 activity”.

On to `O=C(Oc1ccc(Cl)cc1)N1CCc2c([nH]c3ccc(Cl)cc23)C1c1ccc(O)cc1` (stereo not shown) [O-desmethyl emvododstat], for which, on CYP2D6 [7] (in vitro, compared with emvododstat), the “Inhibition of CYP2D6 activity (in words)” value is reported as “to a lesser extent”.

Values taken from paper PMC10243242 (European Journal of Clinical Pharmacology, 2023).
